Data taken from patent publication US20250230193A1, “CYCLIC COMPOUND HAVING SELECTIVE KRAS INHIBITORY EFFECT ON HRAS AND NRAS” (CHUGAI SEIYAKU KABUSHIKI KAISHA, priority 2022, published 2025).
*1 amine or outer side, *2 acyl side, *3 side chain or, on linkers, in order; H or OH if unused. Where a SMILES comes first, the peptide text is derived from it. Bridges are numbered along the chain shown (N, C = ends). [ ]: non-standard residue; d: D form. The star is where a group is joined. hPhe(3-Cl-4-CF3) = N[C@@H](CCc1ccc(C(F)(F)F)c(Cl)c1)C(=O)O; NPrPhe(4-CF3) = CCCN[C@@H](Cc1ccc(C(F)(F)F)cc1)C(=O)O; NEtAsp = CCN([C@@H](CC(=O)[*:3])C(=O)[*:2])[*:1]; NMeGly(cPent) = CN[C@H](C(=O)O)C1CCCC1; NEtLeu = CCN[C@@H](CC(C)C)C(=O)O; NMeD = CN[C@@H](CC(=O)O)C(=O)O; NMeL = CN[C@@H](CC(C)C)C(=O)O; Morpholide = C1CN(*)CCO1; Ac5c = NC1(C(=O)O)CCCC1; NEtG = CCNCC(=O)O; Sar = CNCC(=O)O

Columns and labels:
[1] = target: GDP-bound NRAS wild-type protein (Homo sapiens, UniProt P01111); experiment: Binding to NRAS by surface plasmon resonance (SPR), Single Cycle Kinetics; conditions: KD ratio, GDP-bound NRAS wild-type vs GDP-bound KRAS wild-type, SPR
Chain of GDP-bound NRAS wild-type protein (P01111 whole entry): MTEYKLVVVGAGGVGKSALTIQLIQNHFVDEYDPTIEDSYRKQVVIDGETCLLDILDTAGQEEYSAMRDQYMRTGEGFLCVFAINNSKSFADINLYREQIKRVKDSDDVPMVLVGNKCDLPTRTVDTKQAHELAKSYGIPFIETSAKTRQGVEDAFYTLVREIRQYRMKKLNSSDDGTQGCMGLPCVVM

[2] = target: GDP-bound HRAS wild-type protein (Homo sapiens, UniProt P01112); experiment: Binding to HRAS by surface plasmon resonance (SPR), Single Cycle Kinetics; conditions: KD ratio, GDP-bound HRAS wild-type vs GDP-bound KRAS wild-type, SPR
Chain of GDP-bound HRAS wild-type protein (P01112 whole entry): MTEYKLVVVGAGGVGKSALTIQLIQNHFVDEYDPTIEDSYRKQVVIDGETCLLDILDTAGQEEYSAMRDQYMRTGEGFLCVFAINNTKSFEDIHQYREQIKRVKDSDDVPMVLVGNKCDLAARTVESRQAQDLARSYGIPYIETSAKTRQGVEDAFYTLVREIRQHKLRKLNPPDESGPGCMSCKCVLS

Compound	NRAS/KRAS (ratio of KD value for NRAS to KD value for KRAS) [1]	HRAS/KRAS (ratio of KD value for HRAS to KD value for KRAS) [2]
CCCN1C(=O)CN(C)C(=O)CNC(=O)[C@H]([C@@H](C)CC)NC(=O)[C@H](CC(C)C)N(CC)C(=O)C[C@@H](C(=O)N2CCOCC2)N(C)C(=O)[C@H](C2CCCC2)N(C)C(=O)C2(CCCC2)NC(=O)[C@@H]2CCCN2C(=O)[C@H](CCc2ccc(C(F)(F)F)c(Cl)c2)NC(=O)CN(C)C(=O)[C@@H]1Cc1ccc(C(F)(F)F)cc1 [PP1967] ([NEtLeu]IG[Sar][NPrPhe(4-CF3)][Sar][hPhe(3-Cl-4-CF3)]P[Ac5c][NMeGly(cPent)][NMeD]-Morpholide; lactam N-11)	B (a compound having 3 or more and less than 10 is denoted as B)	B (a compound having 3 or more and less than 10 is denoted as B)
CCCN1C(=O)CN(CC)C(=O)CNC(=O)[C@H]([C@@H](C)CC)NC(=O)[C@H](CC(C)C)N(C)C(=O)C[C@@H](C(=O)N2CCOCC2)N(C)C(=O)[C@H](C2CCCC2)N(C)C(=O)C2(CCCC2)NC(=O)[C@@H]2CCCN2C(=O)[C@H](CCc2ccc(C(F)(F)F)c(Cl)c2)NC(=O)CN(C)C(=O)[C@@H]1Cc1ccc(C(F)(F)F)cc1 [PP1968] ([NMeL]IG[NEtG][NPrPhe(4-CF3)][Sar][hPhe(3-Cl-4-CF3)]P[Ac5c][NMeGly(cPent)][NMeD]-Morpholide; lactam N-11)	C (A compound having a KD ratio of 0.1 or more and less than 3 is denoted as C)	C (A compound having a KD ratio of 0.1 or more and less than 3 is denoted as C)
CCCN1C(=O)CN(C)C(=O)CNC(=O)[C@H]([C@@H](C)CC)NC(=O)[C@H](CC(C)C)N(C)C(=O)C[C@@H](C(=O)N2CCOCC2)N(C)C(=O)[C@H](C2CCCC2)N(C)C(=O)C2(CCCC2)NC(=O)[C@@H]2CCCN2C(=O)[C@H](CCc2ccc(C(F)(F)F)c(Cl)c2)NC(=O)CN(CC)C(=O)[C@@H]1Cc1ccc(C(F)(F)F)cc1 [PP1969] ([NMeL]IG[Sar][NPrPhe(4-CF3)][NEtG][hPhe(3-Cl-4-CF3)]P[Ac5c][NMeGly(cPent)][NMeD]-Morpholide; lactam N-11)	B (a compound having 3 or more and less than 10 is denoted as B)	C (A compound having a KD ratio of 0.1 or more and less than 3 is denoted as C)
CCCN1C(=O)CN(C)C(=O)CNC(=O)[C@H]([C@@H](C)CC)NC(=O)[C@H](CC(C)C)N(C)C(=O)C[C@@H](C(=O)N2CCOCC2)N(CC)C(=O)[C@H](C2CCCC2)N(C)C(=O)C2(CCCC2)NC(=O)[C@@H]2CCCN2C(=O)[C@H](CCc2ccc(C(F)(F)F)c(Cl)c2)NC(=O)CN(C)C(=O)[C@@H]1Cc1ccc(C(F)(F)F)cc1 [PP1970] ([NMeL]IG[Sar][NPrPhe(4-CF3)][Sar][hPhe(3-Cl-4-CF3)]P[Ac5c][NMeGly(cPent)][NEtAsp]-Morpholide; lactam N-11)	B (a compound having 3 or more and less than 10 is denoted as B)	B (a compound having 3 or more and less than 10 is denoted as B)
CCCN1C(=O)CN(C)C(=O)[C@H](C)NC(=O)[C@H]([C@@H](C)CC)NC(=O)[C@H](CC(C)C)N(C)C(=O)C[C@@H](C(=O)N2CCOCC2)N(C)C(=O)[C@H](C2CCCC2)N(C)C(=O)C2(CCCC2)NC(=O)[C@@H]2CCCN2C(=O)[C@H](CCc2ccc(C(F)(F)F)c(Cl)c2)NC(=O)CN(C)C(=O)[C@@H]1Cc1ccc(C(F)(F)F)cc1 [PP1971] ([NMeL]IA[Sar][NPrPhe(4-CF3)][Sar][hPhe(3-Cl-4-CF3)]P[Ac5c][NMeGly(cPent)][NMeD]-Morpholide; lactam N-11)	B (a compound having 3 or more and less than 10 is denoted as B)	B (a compound having 3 or more and less than 10 is denoted as B)
CC[C@H](C)[C@@H]1NC(=O)[C@H](CCOC)N(C)C(=O)C[C@@H](C(=O)N(C)CC)N(C)C(=O)[C@H](C2CCCC2)N(C)C(=O)C2(CC(C)(C)C2)NC(=O)[C@@H]2C[C@H](C)CN2C(=O)[C@H](CCc2cc(F)c(C(F)(F)F)c(F)c2)NC(=O)CN(C)C(=O)[C@H](Cc2ccc(C(F)(F)F)cc2)N2CC/C=C\C[C@@H](C2=O)N(C)C(=O)CN(C)C1=O [PP1972]	A (a compound having 10 or more and less than 20 is denoted as A)	A (a compound having 10 or more and less than 20 is denoted as A)
CCCOC[C@H]1C(=O)N[C@@H]([C@@H](C)CC)C(=O)N(C)CC(=O)N(C)[C@H]2C/C=C\CCN(C2=O)[C@@H](Cc2ccc(C(F)(F)F)cc2)C(=O)N(C)CC(=O)N[C@@H](CCc2ccc(C(F)(F)F)c(OC)c2)C(=O)N2C[C@H](OCC)C[C@H]2C(=O)NC2(CC(C)(C)C2)C(=O)N(C)[C@@H](C2CCCC2)C(=O)N(C)[C@H](C(=O)N(C)CC)CC(=O)N1C [PP1973]	A (a compound having 10 or more and less than 20 is denoted as A)	B (a compound having 3 or more and less than 10 is denoted as B)
CCCN(C)C(=O)[C@@H]1CC(=O)N(C)[C@@H](CCOC)C(=O)N[C@@H]([C@@H](C)CC)C(=O)N(C)CC(=O)N(C)[C@H]2C/C=C\CCN(C2=O)[C@@H](Cc2ccc(C(F)(F)F)cc2)C(=O)N(C)CC(=O)N[C@@H](CCc2cc(F)c(C(F)(F)F)c(F)c2)C(=O)N2C[C@@H](C)C[C@H]2C(=O)NC2(CC(C)(C)C2)C(=O)N(C)[C@@H](C2CCCC2)C(=O)N1C [PP1974]	A (a compound having 10 or more and less than 20 is denoted as A)	A (a compound having 10 or more and less than 20 is denoted as A)
CCCN(C)C(=O)[C@@H]1CC(=O)N(C)[C@@H](CCOC)C(=O)N[C@@H]([C@@H](C)CC)C(=O)N(C)CC(=O)N(C)[C@H]2C/C=C\CCN(C2=O)[C@@H](Cc2ccc(C(F)(F)F)cc2)C(=O)N(C)CC(=O)N[C@@H](CCc2ccc(C(F)(F)F)c(OC)c2)C(=O)N2C[C@H](OCC)C[C@H]2C(=O)NC2(CC(C)(C)C2)C(=O)N(C)[C@@H](C2CCCC2)C(=O)N1C [PP1975]	A (a compound having 10 or more and less than 20 is denoted as A)	A (a compound having 10 or more and less than 20 is denoted as A)
CC[C@H](C)[C@@H]1NC(=O)[C@H](C(C)C)N(C)C(=O)C[C@@H](C(=O)N(C)CC)N(C)C(=O)[C@H](C2CCCC2)N(C)C(=O)C2(CC(C)(C)C2)NC(=O)[C@@H]2C[C@H](C)CN2C(=O)[C@H](CCc2cc(F)c(C(F)(F)F)c(F)c2)NC(=O)CN(C)C(=O)[C@H](Cc2ccc(C(F)(F)F)cc2)N2CC/C=C\C[C@@H](C2=O)N(C)C(=O)CN(C)C1=O [PP1976]	AA (a compound having 20 or more is denoted as AA)	A (a compound having 10 or more and less than 20 is denoted as A)
CCO[C@@H]1C[C@H]2C(=O)NC3(CC(C)(C)C3)C(=O)N(C)[C@@H](C3CCCC3)C(=O)N(C)[C@H](C(=O)N(C)CC)CC(=O)N(C)[C@@H](C(C)C)C(=O)N[C@@H]([C@@H](C)CC)C(=O)N(C)CC(=O)N(C)[C@H]3C/C=C\CCN(C3=O)[C@@H](Cc3ccc(C(F)(F)F)cc3)C(=O)N(C)CC(=O)N[C@@H](CCc3ccc(C(F)(F)F)c(OC)c3)C(=O)N2C1 [PP1977]	AA (a compound having 20 or more is denoted as AA)	A (a compound having 10 or more and less than 20 is denoted as A)
CCO[C@@H]1C[C@H]2C(=O)NC3(CC(C)(C)C3)C(=O)N(C)[C@@H](C3CCCC3)C(=O)N(C)[C@H](C(=O)N(C)C)CC(=O)N(C)[C@@H](C(C)C)C(=O)N[C@@H]([C@@H](C)CC)C(=O)N(C)CC(=O)N(C)[C@H]3C/C=C\CCN(C3=O)[C@@H](Cc3ccc(C(F)(F)F)cc3)C(=O)N(C)CC(=O)N[C@@H](CCc3ccc(C(F)(F)F)c(OC)c3)C(=O)N2C1 [PP1979]	AA (a compound having 20 or more is denoted as AA)	A (a compound having 10 or more and less than 20 is denoted as A)
CC[C@H](C)[C@@H]1NC(=O)[C@H](C2CC2)N(C)C(=O)C[C@@H](C(=O)N(C)CC)N(C)C(=O)[C@H](C2CCCC2)N(C)C(=O)C2(CC(C)(C)C2)NC(=O)[C@@H]2C[C@H](C)CN2C(=O)[C@H](CCc2cc(F)c(C(F)(F)F)c(F)c2)NC(=O)CN(C)C(=O)[C@H](Cc2ccc(C(F)(F)F)cc2)N2CC/C=C\C[C@@H](C2=O)N(C)C(=O)CN(C)C1=O [PP1980]	A (a compound having 10 or more and less than 20 is denoted as A)	B (a compound having 3 or more and less than 10 is denoted as B)
CCO[C@@H]1C[C@H]2C(=O)NC3(CC(C)(C)C3)C(=O)N(C)[C@@H](C3CCCC3)C(=O)N(C)[C@H](C(=O)N(C)CC)CC(=O)N(C)[C@@H](C3CC3)C(=O)N[C@@H]([C@@H](C)CC)C(=O)N(C)CC(=O)N(C)[C@H]3C/C=C\CCN(C3=O)[C@@H](Cc3ccc(C(F)(F)F)cc3)C(=O)N(C)CC(=O)N[C@@H](CCc3ccc(C(F)(F)F)c(OC)c3)C(=O)N2C1 [PP1981]	A (a compound having 10 or more and less than 20 is denoted as A)	A (a compound having 10 or more and less than 20 is denoted as A)
CCCN(C)C(=O)[C@@H]1CC(=O)N(C)[C@@H](C2CC2)C(=O)N[C@@H]([C@@H](C)CC)C(=O)N(C)CC(=O)N(C)[C@H]2C/C=C\CCN(C2=O)[C@@H](Cc2ccc(C(F)(F)F)cc2)C(=O)N(C)CC(=O)N[C@@H](CCc2ccc(C(F)(F)F)c(OC)c2)C(=O)N2C[C@H](OCC)C[C@H]2C(=O)NC2(CC(C)(C)C2)C(=O)N(C)[C@@H](C2CCCC2)C(=O)N1C [PP1983]	AA (a compound having 20 or more is denoted as AA)	A (a compound having 10 or more and less than 20 is denoted as A)
